Measured values taken from US9206161B2, “Bridged bicyclic heteroaryl substituted triazoles useful as Axl inhibitors” (Rigel Pharmaceuticals, Inc., priority 2008, dated 2015).
Each block holds one compound with its values, some of them ahead of it.

Target: T1, Axl (Homo sapiens, UniProt P30530)
T1 construct: endogenous in cells; host or cells: HeLa cells
T1 sequence (P30530 26-894): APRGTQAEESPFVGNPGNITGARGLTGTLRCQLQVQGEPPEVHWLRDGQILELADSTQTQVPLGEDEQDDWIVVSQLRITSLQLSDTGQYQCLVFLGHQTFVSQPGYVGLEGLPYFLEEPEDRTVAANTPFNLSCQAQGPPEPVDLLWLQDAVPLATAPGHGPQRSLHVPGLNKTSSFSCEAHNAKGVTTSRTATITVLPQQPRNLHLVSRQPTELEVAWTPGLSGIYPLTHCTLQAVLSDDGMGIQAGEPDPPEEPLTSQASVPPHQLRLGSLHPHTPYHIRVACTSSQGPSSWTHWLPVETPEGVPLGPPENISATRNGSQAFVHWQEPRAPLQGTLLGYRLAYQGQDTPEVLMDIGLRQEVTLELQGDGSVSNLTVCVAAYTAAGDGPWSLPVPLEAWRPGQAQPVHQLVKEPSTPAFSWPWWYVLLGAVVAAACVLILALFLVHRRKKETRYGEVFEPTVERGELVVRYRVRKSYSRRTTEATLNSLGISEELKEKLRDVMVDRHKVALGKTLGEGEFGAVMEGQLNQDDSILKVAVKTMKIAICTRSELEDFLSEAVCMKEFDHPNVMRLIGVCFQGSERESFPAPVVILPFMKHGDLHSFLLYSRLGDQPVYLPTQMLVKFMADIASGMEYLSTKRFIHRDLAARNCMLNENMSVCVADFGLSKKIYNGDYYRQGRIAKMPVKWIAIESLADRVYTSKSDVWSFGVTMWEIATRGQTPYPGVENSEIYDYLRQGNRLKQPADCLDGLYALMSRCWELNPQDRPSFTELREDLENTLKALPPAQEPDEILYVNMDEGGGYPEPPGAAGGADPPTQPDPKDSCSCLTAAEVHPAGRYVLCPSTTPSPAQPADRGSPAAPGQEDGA
Experiment: Phospho-Akt in-cell Western assay
Format: cell-based
Details: Hela cells, Axl antibody cross-linking stimulation, phospho-Akt readout
Description: Phospho-Akt in-Cell Western Assay
The compounds of the invention were tested in the following assay for their ability to inhibit Axl activity.
• Cell culture plate: 96 well assay plate (Corning 3610), white, clear bottom, tissue-culture treated. • Cells: Hela cells. • Starvation medium: For Axl stimulation: 0.5% FCS (fetal calf serum) in DMEM, plus Axl/Fc (extracellular domain of AXL fused to immunoglobulin Fc region) (R&D, 154-AL) 500 ng/mL. • For EGF (epidermal growth factor) stimulation: 0.5% FCS in DMEM (Dulbecco's modified Eagles medium). • Poly-L-Lysine 0.01% solution (the working solution): 10 μg/ml, dilute In PBS (phosphate buffered saline). • Axl antibody cross-linking: • 1st: Mouse anti-Axl (R&D, MAB154). • 2nd: Biotin-SP-conjugated AffiniPure goat anti-mouse IgG (H+L) (Jackson ImmunoResearch #115-065-003). • Fixing buffer: 4% formaldehyde in PBS. • Wash buffer: 0.1% TritonX-100 in PBS. • Quenching buffer: 3% H2O2, 0.1% Azide in wash buffer, Azide and hydrogen peroxide (H2O2) are added fresh. • Blocking buffer: 5% BSA in TBST (tris buffered saline plus 0.1% Tween 20). • Primary antibody: Rabbit anti-human Phospho-Akt antibody (Cell Signaling 9271): 1×250 diluted in blocking buffer. • Secondary antibody: HRP (horse radish peroxidase)-conjugated Goat anti-Rabbit secondary, stock solution: Jackson ImmunoResearch (Goat anti-Rabbit HRP, #111-035-144) 1:1 diluted in glycerol, store at −20° C. The working solution: 1×2000 dilution of stock in blocking buffer. • Chemiluminescent working solution (Pierce, 37030): SuperSignal ELISA (enzyme linked immunosorbant assay) Pico Chemiluminescent substrate. • Crystal Violet solution: Stock: 2.5% Crystal violet in methanol, filtered and kept at ambient temperature. The working solution: dilute the stock 1:20 with PBS immediately before use. • 10% SDS: working solution: 5% SDS (sodium dodecylsulfate), diluted in PBS Methods: Day 1:
A 96 well TC (tissue culture treated) plate was coated with 10 μg/mL poly-L-Lysine at 37° C. for 30 min, washed twice with PBS, and air-dried for 5 minutes before cells were added. Hela cells were seeded at 10,000 cells/well and the cells were starved in 100 μL starvation medium containing Axl/Fc for 24 hrs.
The cells were pre-treated with test compounds by adding 100 μL of 2× test compound to the starvation medium on the cells. The cells were incubated at 37° C. for 1 hr before stimulation.
The cells were stimulated by Axl-antibody cross-linking as follows: A 5×1st/2nd Axl antibody mixture was made (37.5 μg/mL 1st/100 μg/mL 2nd) in starvation medium and nutated at 4° C. with thorough mixing for 1-2 hours for clustering. The resulting mix was warmed to 37° C. 50 μL of 5× Axl 1st/2nd of antibody cluster was added to the cells and the cells were incubated at 37° C. for 5 min.
After 5 minutes stimulation, the plate was flicked to remove medium and the plate was tapped onto paper towels. Formaldehyde (4.0% in PBS, 100 μL) was added to fix the cells and the cells were incubated at ambient temperature for 20 min without shaking.
The cells were washed with a plate washer buffer to remove the formaldehyde solution. The plate was flicked to removed excess wash buffer and tapped onto paper towels. Quenching buffer (100 μL) was added to each well and the cells were incubated at ambient temperature for 20 minutes without shaking.
The cells were washed with a plate washer buffer to remove the quenching buffer. Blocking buffer (100 μL) was added and the cells were incubated at ambient temperature for at least an hour with gentle shaking.
The cells were washed with a plate washer buffer and diluted primary antibody (50 μL) was added to each well (blocking buffer was added to the negative control wells instead). The plates were incubated overnight at 4° C. with gentle shaking.
The wash buffer was removed, diluted secondary antibody (100 μL) was added, and the cells were incubated at ambient temperature for 1 hour with gentle shaking. […]

SMILES: Nc1nc(Nc2ccc3c(c2)CCC(N2CCCC2)CC3)nn1-c1nnc(-c2ccccc2Cl)c2c1C1CCC2CC1 (centres unmarked) [Compound 29, 1-(4-(2-chlorophenyl)-5,8-ethano-5,6,7,8-tetrahydrophthalazine-1-yl)-N^3-(7-(pyrrolidin-1-yl)-6,7,8,9-tetrahydro-5H-benzo[7]annulene-2-yl)-1H-1,2,4-triazole-3,5-diamine]
IC50 (Table 8, formula (VI)): < 1000 nM

SMILES: N#Cc1cccc(-c2nnc(-n3nc(Nc4ccc(N5CCC(N6CCCC6)CC5)c(F)c4)nc3N)c3c2C2CCC3CC2)c1 [Compound 16, 1-(4-(3-cyanophenyl)-5,8-ethano-5,6,7,8-tetrahydrophthalazine-1-yl)-N^3-(4-(4-(pyrrolidin-1-yl)piperidinyl)-3-fluorophenyl)-1H-1,2,4-triazole-3,5-diamine]
IC50 (Table 5, formula (IVa)): < 1000 nM

SMILES: CCOc1ccc(C)cc1-c1nnc(-n2nc(Nc3ccc4c(c3)CCC(N3CCCC3)CC4)nc2N)c2c1C1CCC2CC1 (centres unmarked) [Compound 32, 1-(4-(2-ethoxy-5-methylphenyl)-5,8-ethano-5,6,7,8-tetrahydrophthalazine-1-yl)-N^3-(7-(pyrrolidin-1-yl)-6,7,8,9-tetrahydro-5H-benzo[7]annulene-2-yl)-1H-1,2,4-triazole-3,5-diamine]
IC50 (Table 8, formula (VI)): 1000 to 10000 nM

SMILES: Cc1cccc(-c2nnc(-n3nc(Nc4ccc(N5CCN(CC6CC6)[C@@H](C)C5)nc4)nc3N)c3c2C2CCC3CC2)c1 [Compound 23, (3S)-1-(4-(3-methylphenyl)-5,8-ethano-5,6,7,8-tetrahydrophthalazine-1-yl)-N^3-(6-(4-(cyclopropylmethyl)-3-methylpiperazin-1-yl)pyridin-3-yl)-1H-1,2,4-triazole-3,5-diamine]
IC50 (Table 7, formula (V)): 1000 to 10000 nM

SMILES: CCN(CC)[C@H]1CCc2ccc(Nc3nc(N)n(-c4cc(-c5ccccc5)c5c(n4)C4CCN5CC4)n3)cc2CC1 [Compound 35, (7S)-1-(1,4-ethano-8-phenyl-1,2,3,4-tetrahydro-1,5-naphthyridin-6-yl)-N^3-(7-(diethylamino)-6,7,8,9-tetrahydro-5H-benzo[7]annulene-2-yl)-1H-1,2,4-triazole-3,5-diamine]
IC50 (Table 4, formula (III)): < 1000 nM

SMILES: CN(C)CC(=O)N1CCc2ncc(Nc3nc(N)n(-c4cc(-c5ccccc5)c5c(n4)C4CCN5CC4)n3)cc2C1 [Compound 4, 1-(1,4-ethano-8-phenyl-1,2,3,4-tetrahydro-1,5-naphthyridin-6-yl)-N^3-(6-[((dimethyl)amino)methylcarbonyl]-5,6,7,8-tetrahydro-1,6-naphthyridine-3-yl)-1H-1,2,4-triazole-3,5-diamine]
IC50 (Table 2, formula (Ib)): < 1000 nM

SMILES: Nc1nc(Nc2ccc(N3CCC(N4CCCC4)CC3)c(F)c2)nn1-c1cc(-c2ccc(F)cc2)c2c(n1)C1CCN2CC1 [Compound 8, 1-(1,4-ethano-8-(4-fluorophenyl)-1,2,3,4-tetrahydro-1,5-naphthyridin-6-yl)-N^3-(4-(4-(pyrrolidin-1-yl)piperidinyl)-3-fluorophenyl)-1H-1,2,4-triazole-3,5-diamine]
IC50 (Table 3, formula (II)): < 1000 nM

SMILES: C[C@H]1CN(c2ccc(Nc3nc(N)n(-c4nnc(-c5ccncc5)c5c4C4CCC5CC4)n3)cn2)CCN1CC1CC1 [Compound 24, (3S)-1-(4-(pyridin-4-yl)-5,8-ethano-5,6,7,8-tetrahydrophthalazine-1-yl)-N^3-(6-(4-(cyclopropylmethyl)-3-methylpiperazin-1-yl)pyridin-3-yl)-1H-1,2,4-triazole-3,5-diamine]
IC50 (Table 7, formula (V)): 1000 to 10000 nM

SMILES: Nc1nc(Nc2ccc(N3CCC(N4CCCC4)CC3)c(F)c2)n(-c2nnc(Cl)c3c2C2CCC3CC2)n1 [Compound 14, 1-(4-chloro-5,8-ethano-5,6,7,8-tetrahydrophthalazine-1-yl)-N^5-(4-(4-(pyrrolidin-1-yl)piperidinyl)-3-fluorophenyl)-1H-1,2,4-triazole-3,5-diamine]
IC50 (Table 6, formula (IVb)): 1000 to 10000 nM

Second part, the compound after the results:

IC50 (Table 9, formula (VII)): < 1000 nM
SMILES: Nc1nc(Nc2ccc(N3CCC(N4CCCC4)CC3)c(F)c2)nn1-c1nc2c(c(-c3ccccc3)n1)CCCC2 [Compound 42, 1-(4-phenyl-5,6,7,8-tetrahydroquinazoline-2-yl)-N^3-(4-(4-(pyrrolidin-1-yl)piperidinyl)-3-fluorophenyl)-1H-1,2,4-triazole-3,5-diamine]

IC50 (Table 4, formula (III)): < 1000 nM
SMILES: CC(C)CN(CC(C)C)[C@H]1CCc2ccc(Nc3nc(N)n(-c4cc(-c5ccccc5)c5c(n4)C4CCN5CC4)n3)cc2CC1 [Compound 41, (7S)-1-(1,4-ethano-8-phenyl-1,2,3,4-tetrahydro-1,5-naphthyridin-6-yl)-N^3-(7-(diisobutylamino)-6,7,8,9-tetrahydro-5H-benzo[7]annulene-2-yl)-1H-1,2,4-triazole-3,5-diamine]

IC50 (Table 9, formula (VII)): < 1000 nM
SMILES: Nc1nc(Nc2ccc(N3CCC(N4CCCC4)CC3)c(F)c2)nn1-c1nc(-c2ccccc2)c2c(n1)C1CCN2CC1 [Compound 43, 1-(5,8-ethano-4-phenyl-5,6,7,8-tetrahydropyrido[3,2-d]pyrimidin-2-yl)-N^3-(4-(4-(pyrrolidin-1-yl)piperidinyl)-3-fluorophenyl)-1H-1,2,4-triazole-3,5-diamine]

IC50 (Table 4, formula (III)): < 1000 nM
SMILES: Nc1nc(Nc2ccc3c(c2)CC[C@@H](NC2CCC2)CC3)nn1-c1cc(-c2ccccc2)c2c(n1)C1CCN2CC1 [Compound 38, (7S)-1-(1,4-ethano-8-phenyl-1,2,3,4-tetrahydro-1,5-naphthyridin-6-yl)-N^3-(7-(cyclobutylamino)-6,7,8,9-tetrahydro-5H-benzo[7]annulene-2-yl)-1H-1,2,4-triazole-3,5-diamine]

IC50 (Table 4, formula (III)): < 1000 nM
SMILES: CC(C)CN[C@H]1CCc2ccc(Nc3nc(N)n(-c4cc(-c5ccccc5)c5c(n4)C4CCN5CC4)n3)cc2CC1 [Compound 40, (7S)-1-(1,4-ethano-8-phenyl-1,2,3,4-tetrahydro-1,5-naphthyridin-6-yl)-N^3-(7-(isobutylamino)-6,7,8,9-tetrahydro-5H-benzo[7]annulene-2-yl)-1H-1,2,4-triazole-3,5-diamine]
